# Legend:
# Format in all cases: in vivo, Gossypium hirsutum
# [1] = system: mutant pagoda1; experiment: Shaping of cotton by local application of brassinosteroids
# Description: Since brassinosteroids cannot be delivered for a long distance in a plant, a local application thereof may promote the growth of the applied part, without an impact on the far part.
# [2] = system: cotton variety "CRI 24"; experiment: Response of cotton variety CRI 24 to brassinosteroids (hypocotyledonary axis length); details: 500 nM in liquid medium, cotyledon stage to five leaf stage, vs 0.2% ethanol control, average of 20 plants
# Method: (§1) The mutant pagoda1 and the cotton variety“CRI 24” were identified as below, respectively: • Test Group: cultivating cotton plants of the cotyledon stage in a liquid medium containing 500 nM brassinosteroids (Sigma) to the five leaf stage, to measure the length of its hypocotyledonary axis;
# (§2) Control Group: the same as the Test Group, except that brassinosteroids was replaced with an equal volume of an aqueous solution of 0.2% ethanol.
# (§3) The length measurements of hypocotyledonary axis of the processed plants from respective groups (an averaged measurement of 20 plants for each group) are shown in FIG. 2. […] For the cotton variety “CRI 24”, after the treatment with brassinosteroids, the hypocotyledonary axis was prolonged by only 16%.
# [3] = system: mutant pagoda1; experiment: Response of mutant pagoda1 to brassinosteroids (hypocotyledonary axis length); details: 500 nM in liquid medium, cotyledon stage to five leaf stage, vs 0.2% ethanol control, average of 20 plants
# Method: as §1, §2, §3
substance,measurement,setting,value
brassinosteroids,extension of the lateral branch after application to the lateral branch,[1]; 500 nM applied to a lateral branch of a seedling of mutant pagoda1 (FIG. 4B),significantly extended
same,growth of the top of the seedling after application to the top,[1]; 500 nM applied to the top of a seedling of mutant pagoda1 (FIG. 4A),significantly promoting the growth of the top of the seeding
same,hypocotyledonary axis prolonged after treatment with brassinosteroids,[2],16%
same,hypocotyledonary axis prolonged after treatment with brassinosteroids,[3],270%

# Source: patent US10041085B2, “Plant type related protein, and coding gene and application thereof” (Cotton Research Institute, Chinese Academy of Agricultural …, priority 2013, dated 2018)
